Here are results for 2 compounds from patent publication US20230098637A1, “PROGNOSTIC PATHWAYS FOR HIGH RISK SEPSIS PATIENTS” (InnoSIGN B.V., priority 2020, published 2023).

Entries after “also recorded” stand apart in the source; their conditions may differ.

Format in all cases: cell-based
For assay [1], the system named is AR cellular signaling pathway. The assay is described as follows: AR inhibitor experiment in LPS-stimulated monocytes (THP1), AR pathway activity. The note with it: THP1 monocytes cultured 24 hours with or without LPS, then with or without DHT. The protocol:
(§1) FIG. 35 Schematic overview of AR inhibitor experiment. Depicts the experimental setup to determine if AR inhibitors can be used to mitigate the effect of LPS on monocytes (THP1 cells). In brief, monocyte cells (THP1) are cultured for 24 hours with or without LPS, after which the medium is changed and both conditions are subsequently cultured with or without DHT. Both LPS and DHT are anticipated to activate the AR cellular signaling pathway. In a parallel experiment, THP1 cells are first cultured for 24 hours with LPS, after which the medium is changed and the cells are cultured with one of ARCC-4, ARD-266, A-458 and bicalutamide.
(§2) FIG. 35 describes the experimental set-up used. In brief, monocyte cells (THP1) are cultured for 24 hours with or without LPS, after which the medium is changed and both conditions are subsequently cultured with or without DHT. Both LPS and DHT are anticipated to activate the AR cellular signaling pathway. In a parallel experiment, THP1 cells are first cultured for 24 hours with LPS, after which the medium is changed and the cells are cultured with one of ARCC-4, ARD-266, A-458 and bicalutamide.
(§3) All experimental conditions were subjected to cellular signaling pathways analysis.

Assay [2] has as its system ER cellular signaling pathway. The assay can be described thus: AR inhibitor experiment in LPS-stimulated monocytes (THP1), ER pathway activity. The note with it: THP1 monocytes cultured 24 hours with or without LPS, then with or without DHT. The protocol: as §1, §2, §3
For assay [3], the system named is HH (Hedgehog) cellular signaling pathway. The assay can be described thus: AR inhibitor experiment in LPS-stimulated monocytes (THP1), HH pathway activity. Conditions: THP1 monocytes cultured 24 hours with or without LPS, then with or without DHT. The protocol:
as §1, §2, §3

Assay [4] deals with TGFbeta cellular signaling pathway. The assay is described as follows: AR inhibitor experiment in LPS-stimulated monocytes (THP1), TGFbeta pathway activity. Conditions: THP1 monocytes cultured 24 hours with or without LPS, then with or without DHT. The protocol:
as §1, §2, §3

The test system of assay [5] is AR pathway. The assay is described as follows: LPS stimulation of THP-1 cells, AR pathway activity (qPCR OncoSignal). Conditions: LPS from E. coli 10, 50, 100 ng/ml, 24 hours, vs control. The procedure:
(§4) To study the inflammation process we stimulated the monocytic THP-1 cells (ATCC® TIB-202™) using 3 different concentrations of LPS originated from E. coli ([…], 10 ng/ml, 50 ng/ml and 100 ng/ml) into culture medium (DMEM, supplemented with 10% FBS, 1% glutamax and 1% pen strep at 37° C. 5% CO2.) of THP-1 for 24 hours. After stimulation cells were harvested and RNA was extracted using the RNeasy mini kit (Qiagen, 74104). qPCR was performed using the Philips Research OncoSignal platform. […] The activation of the AR and TGFBeta pathways was also seen in sepsis samples confirms the role of these pathways in inflammation.
In general terms: Quantitative PCR measures a nucleic acid by following its amplification.

For assay [6], the system named is FOXO pathway. The assay is described as follows: LPS stimulation of THP-1 cells, FOXO pathway activity. The note with it: LPS from E. coli 10, 50, 100 ng/ml, 24 hours, vs control. The protocol:
as §4

Assay [7] relates to TGFBeta pathway. The assay can be described thus: LPS stimulation of THP-1 cells, TGFBeta pathway activity. Conditions: LPS from E. coli 10, 50, 100 ng/ml, 24 hours, vs control. The procedure: as §4
Assay [8] deals with WNT pathway. The assay is described as follows: LPS stimulation of THP-1 cells, WNT pathway activity. Conditions: LPS from E. coli 10, 50, 100 ng/ml, 24 hours, vs control. The protocol:
as §4

As to `C[C@]12CCC(=O)C[C@@H]1CC[C@@H]1[C@@H]2CC[C@]2(C)[C@@H](O)CC[C@@H]12` [DHT], in assay [1], the “AR cellular signaling pathway activity” value is listed as “increase”. Also, in assay [2], the “ER cellular signaling pathway activity” value is given as “not substantially affected”. The “HH cellular signaling pathway activity” value in assay [3] is “not substantially affected”. In assay [4], the “TGFbeta cellular signaling pathway activity” value is “did not increase”.

As to lipopolysaccharide [LPS], the AR pathway activity entry in assay [5] is given as “increased”. For the same compound, the FOXO pathway activity entry in assay [6] is given as “increased”. Further, the TGFBeta pathway activity result in assay [7] is given as “increased”. Further, in assay [8], the WNT pathway activity result is recorded as “increased”. For the same compound, in assay [1], the “AR cellular signaling pathway activity” value was “able to stimulate; also recorded: increase”. In addition, in assay [2], the “ER cellular signaling pathway activity” value is “not substantially affected”. Also, the “HH cellular signaling pathway activity” value in assay [3] is “not substantially affected”. The “TGFbeta cellular signaling pathway activity” value in assay [4] is recorded as “increased”.
